Results on twelve compounds are retold here after patent US10940188B2, “Compounds and methods for treatment and prevention of Flavivirus infection” (priority 2016, dated 2021).

Test [1] concerns ZIKV MR766 NS1. Nature of the test: microbe, parasite or virus in culture. The class given is cell-based, Zika virus. Conditions: read-out: NS1-IC50. The procedure: A one-step NS1 TR-FRET (Time-resolved fluorescence resonance energy transfer) assay for a screen of anti-ZIKV compounds was carried out. Human embryonic kidney cell line HEK293 cells were seeded into 384-well plates and infected with ZIKV MR766 at a MOI of 0.5 for 2 days. The FRET assay was performed with two clones of anti-NS1 antibody (ab) differentially labelled with donor and acceptor fluorophores.

Test [2] relates to HEK293 cells. The test is described as follows: Toxicity IC50 (cell-killing activity) of the NS1 TR-FRET screen. It is filed as cell-based, human. The conditions noted are these: cell-killing activity.
The test system of test [3] is ZIKV-induced caspase 3/7 activity in hNPCs. The test is described as follows: Caspase 3/7 activity assay, ZIKV-infected hNPCs. The class given is cell-based. The conditions noted are these: ZIKV-infected hNPCs; for IC50: read-out: Caspase 3 (IC50, uM) NPCs; for Emax: read-out: Caspase 3 (efficacy, %) NPCs. In outline: (§1)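 Human NPCs, SNB-19 cells or astrocytes seeded 16 h, compound added 30 min before ZIKV, then 6 h infection at 37 °C. Caspase-Glo 3/7 luminescence after 30 min at room temperature, normalized to uninfected cells (0%) and ZIKV-infected cells (100%).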

In test [4] the test system is ZIKV-induced cell death in SNB-19 cells. Nature of the test: ATP cell viability assay for ZIKV-induced cell death, SNB-19 cells. Conditions: ZIKV-infected SNB-19 cells; for IC50: read-out: Cell viability (IC50, uM) SNB-19. The class given is cell-based, human. In outline: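 The extent of cell death caused by ZIKV infection was determined from ATP levels. Cells grew in assay plates for 16 hours at 37° C. with 5% CO2, were then given ZIKV solution and kept under the same conditions for 72 hours. ATPlite reagent was applied for 15 minutes and luminescence was read on a ViewLux plate reader. Cell-free wells defined 100% killing and uninfected cell wells defined full viability.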

Test [5] has as its system ZIKV-induced cell death in human astrocytes. Nature of the test: ATP cell viability assay for ZIKV-induced cell death, human astrocytes. Conditions: ZIKV-infected human astrocytes; for IC50: read-out: Cell viability (IC50, uM) Astrocyte. The class given is cell-based.
The test system of test [6] is ZIKV-induced caspase 3/7 activity in SNB-19 cells. Nature of the test: Caspase 3/7 activity assay, ZIKV-infected SNB-19 cells. It is filed as cell-based. The conditions noted are these: ZIKV-infected SNB-19 cells; for IC50: read-out: Caspase 3 (IC50, uM) SNB-19; for Emax: read-out: Caspase 3 (efficacy, %) SNB-19. In outline:
as §1

For test [7], the system named is ZIKV-induced caspase 3/7 activity in human astrocytes. Nature of the test: Caspase 3/7 activity assay, ZIKV-infected human astrocytes. The conditions noted are these: ZIKV-infected human astrocytes; for IC50: read-out: Caspase 3 (IC50, uM) Astrocyte; for Emax: read-out: Caspase 3 (efficacy, %) Astrocyte. The class given is cell-based. Summed up: as §1
[8] abbreviates: HEK293 cells, ZIKV MR766, MOI 0.5, 2 days, virus-inhibiting activity.

Counter-ions that a name gives are not always drawn. Like-named read-outs stand apart in the source and are kept apart here.

By IC50 is commonly meant the concentration that inhibits the measured activity by half. In the case of `C[C@H]1CCC/C=C/[C@@H]2C[C@H](O)C[C@H]2[C@H](O)/C=C/C(=O)O1` [Cyanein], the IC50 in test [1] (setting [8]) was 0.432 µM. The “Tox IC50” value in test [2] is listed as “No”.
Regarding `O=C(Cc1ccc(-c2ccc(OCCN3CCOCC3)cc2)cn1)NCc1ccccc1` [KX-01], the IC50 came out at 0.481 µM in test [1] (setting [8]) and 19.3 µM in test [2] (read-out: Tox IC50).
Turning to `CC[C@@H]1C(=O)N(C)c2cnc(Nc3ccc(C(=O)NC4CCN(C)CC4)cc3OC)nc2N1C1CCCC1` [BI-2536], in test [2], the “Tox IC50” value was “No”.
For the compound `O=c1c2ccccc2[se]n1-c1ccccc1` [Ebselen], the IC50 in test [3] (Homo sapiens) is 8.2 µM; in test [6] (Homo sapiens), 17.3 µM; in test [7] (Astrocyte), 8.2 µM. Besides, the Emax was 109% in test [3] (Homo sapiens), 117% in test [6] (Homo sapiens) and 93.8% in test [7] (Astrocyte). Besides, in test [4], the “Cell viability (efficacy, %) SNB-19” value worked out at 0.0%. Besides, the “Cell viability (efficacy, %) Astrocyte” value in test [5] stood at 0.0%.
With `COc1ccc(/C=C/C(=O)Nc2ccccc2C(=O)O)cc1OC` [Tranilast], the IC50 in test [3] (Homo sapiens) worked out at 19.5 µM; in test [6] (Homo sapiens), 17.3 µM; in test [7] (Astrocyte) it was 17.3 µM. The Emax in test [3] (Homo sapiens) amounted to 107%; in test [6] (Homo sapiens) it was 70.3%; in test [7] (Astrocyte) it was 71.6%. Also, the “Cell viability (efficacy, %) SNB-19” value in test [4] turned out to be 0.0%. In addition, in test [5], the “Cell viability (efficacy, %) Astrocyte” value amounted to 0.0%.
On to `Nc1ccc(-c2ccc3ccccc3n2)cc1` [BF-170 hydrochloride], for which, in test [3], the “Caspase 3 (efficacy, %) NPCs” value is reported as 92.7% and the IC50 was 4.11 µM. In test [4], the “Cell viability (efficacy, %) SNB-19” value is listed as 0.0%. For the same compound, in test [5], the “Cell viability (efficacy, %) Astrocyte” value is recorded as 65.8% and the IC50 is 6.15 µM. In test [6], the “Caspase 3 (efficacy, %) SNB-19” value worked out at 104% and the IC50 came to 6.15 µM. In addition, in test [7], the “Caspase 3 (efficacy, %) Astrocyte” value worked out at 118% and the IC50 came to 4.61 µM.
For the compound `COc1cccc2c1C(=O)c1c(O)c3c(c(O)c1C2=O)C[C@@](O)(C(=O)CO)C[C@@H]3O[C@H]1C[C@H](N)[C@@H](O)[C@H](C)O1` [Epirubicin hydrochloride], in test [1] (Zika virus, HEK293, 48 h), the IC50 is 0.492 µM.
Take `Nc1ccc(/N=N/c2ccccc2)c(N)n1` [Phenazopyridine hydrochloride]: the 50% inhibitory concentration (IC50) in test [3] (Homo sapiens) is 11.6 µM; in test [4] (Homo sapiens) it was 27.5 µM; in test [6] (Homo sapiens), 16.4 µM; in test [7] (Astrocyte), 15.5 µM. Also, the Emax in test [3] (Homo sapiens) worked out at 72.5%; in test [6] (Homo sapiens) it was 73.7%; in test [7] (Astrocyte) it was 69.9%. The “Cell viability (efficacy, %) SNB-19” value in test [4] is 35.3%. Besides, the “Cell viability (efficacy, %) Astrocyte” value in test [5] is listed as 0.0%.
In the case of `CN(C)c1ccc(N=NS(=O)(=O)[O-])cc1.[Na+]` [Fenaminosulf], the “Caspase 3 (efficacy, %) NPCs” value in test [3] came to 0.0%. In test [4], the “Cell viability (efficacy, %) SNB-19” value was 36.7% and the IC50 is 15.8 µM. Moreover, in test [5], the “Cell viability (efficacy, %) Astrocyte” value worked out at 0.0%. Also, in test [6], the “Caspase 3 (efficacy, %) SNB-19” value was determined as 0.0%. For the same compound, in test [7], the “Caspase 3 (efficacy, %) Astrocyte” value was 58.5% and the half-inhibitory concentration (IC50) is 35.5 µM.
For `C=CC[C@@H]1/C=C(\C)C[C@H](C)C[C@H](OC)[C@H]2O[C@@](O)(C(=O)C(=O)N3CCCC[C@H]3C(=O)O[C@H](/C(C)=C/[C@@H]3CC[C@@H](O)[C@H](OC)C3)[C@H](C)[C@@H](O)CC1=O)[C@H](C)C[C@@H]2OC` [FK-506], the IC50 in test [1] (Zika virus, HEK293, 48 h) worked out at 0.104 µM.
Regarding `Clc1ccccc1-c1nc(-c2ccncc2)no1` [Pifexole], the values for the IC50 in test [3] (Homo sapiens), in test [6] (Homo sapiens) and in test [7] (Astrocyte) were 4.61 µM, 8.2 µM and 6.9 µM, respectively. In addition, the Emax in test [3] (Homo sapiens) came to 92.2%; in test [6] (Homo sapiens) it was 83.6%; in test [7] (Astrocyte), 86.3%. Moreover, the “Cell viability (efficacy, %) SNB-19” value in test [4] was determined as 0.0%. The “Cell viability (efficacy, %) Astrocyte” value in test [5] was found to be 0.0%.
As for `CCC(CC)CC1(C(=O)Nc2ccccc2SC(=O)C(C)C)CCCCC1` [Dalcetrapib], the figures for the IC50 in test [3] (Homo sapiens), in test [4] (Homo sapiens) and in test [5] (Astrocyte) were 35.5 µM, 35.5 µM and 47.3 µM, respectively. Moreover, the Emax in test [3] (Homo sapiens) is 50.2%; in test [6] (Homo sapiens), 50.2%; in test [7] (Astrocyte), 0%. Besides, the “Cell viability (efficacy, %) SNB-19” value in test [4] was 110%. The “Cell viability (efficacy, %) Astrocyte” value in test [5] came out at 45.7%.
